Assays:
MDCK cells = assay: Cytotoxicity assay (MTT/CIMA) in MDCK cells (Example 7)
[1] = tested on: all three transformed neuronal cell lines (IMR32, NG108, NSC34); assay: MTT (CIMA) cell proliferation assay (Example 4); conditions: 72 h post-treatment; 0.5-250 μg/ml
Method: (§1) Compound preparation: Stock solutions of test compounds were prepared in dimethylsulfoxide (DMSO) at 250 mg/ml. Working concentrations of 10 mg/ml were subsequently prepared from the stock solution and stored in 50 μl aliquots at −20° C. until used.
Cells and cell culture: Three classes of cells were evaluated: 1) neuroblastoma cells, 2) neuroglioma cells, and 3) non-transformed human neurons (see below). All cells were maintained in appropriate culture medium supplemented with 10% fetal calf serum (FCS) and antibiotics in a humidified, 5% CO2 environment. Cells were passaged as required by trypsinization.
Assay conditions: The effects of the test compounds were assessed following acute and chronic exposure conditions. […] Each compound was evaluated over a broad range of concentrations (0, 0.5, 1, 5, 10, 50, 100 and 250 μg/ml) with cells treated with equivalent concentrations of vehicle (DMSO) serving as controls.
Cell proliferation assay: Cell proliferation was assessed using a standard colorimetric indicator of metabolic activity (CIMA) assay. In this assay, the reduction of yellow tetrazolium salt (MTT) to purple formazan by mitochondrial reductase enzymes in viable cells was evaluated as a measure of metabolic activity to determine the extent of cell proliferation within a culture. […]

U373 astroglioma cells = assay: MTT (CIMA) cell proliferation assay, acute and chronic exposure (Example 3); conditions: acute (24 h) and chronic (72 h) treatment, 0.5-250 μg/ml
Method: as §1
(§2) Cells and cell culture: Proof-of-principle studies in this example focused on two human brain cancer cell lines, namely SH-SY5Y neuroblastoma cells and U373 astroglioma cells. […] Both cells were maintained in (50:50) F12:DMEM medium supplemented with 10% fetal calf serum (FCS) and antibiotics in a humidified, 5% CO2 environment. Cells were passaged as required by trypsinization.
(§3) Assays conditions: The effects of the test compounds were assessed following acute and chronic exposure conditions. […] The test compounds were evaluated over a broad range of concentrations (0, 0.5, 1, 5, 10, 50, 100 and 250 μg/ml) with cells treated with equivalent concentrations of vehicle (DMSO) serving as controls.
(§4) Cell proliferation assay: Cell proliferation was assessed using a standard colorimetric indicator of metabolic activity (CIMA) assay. In this assay, the reduction of yellow tetrazolium salt (MTT) to purple formazan by mitochondrial reductase enzymes in viable cells was evaluated as a measure of metabolic activity to determine the extent of cell proliferation within a culture. The resulting colour change that conferred a change in absorbance was quantified using a spectrophotometer (λ=500-600). Samples were diluted as required to ensure that values obtained with the MTT assay fell within the linear range of the protocol. Qualitative microscopic evaluation of treated cultures was used to determine if overt cytotoxicity was present and to supplement the quantitative CIMA data.

[2] = tested on: Influenza B (strain B/Lee/40); assay: Anti-influenza cytopathic effect (CPE) assay in MDCK cells, prophylactic regimen (Example 7); format: cell-based; parameters: key to CPE score: 1: Complete monolayer with few gaps or dead cells; 2: Some gaps in the monolayer; dead cells more evident; 3: Increasing number of gaps in the monolayer concurrent with dead cells; 4: Gaps widely distributed throughout the monolayer and of increasing size; 5: Large holes forming as smaller gaps merge; copious dead cells evident; 6: Monolayer integrity lost. Small islands of attached cells amid predominantly dead cells; conditions: for CPE score: Influenza B, MDCK, virus + DMSO control 4
[3] = tested on: SH-SY5Y neuroblastoma cells; assay: MTT (CIMA) cell proliferation assay, acute and chronic exposure (Example 3)
Method: as §1, §2, §3, §4

[4] = tested on: Influenza A (strain A/PR/8/34); assay: Anti-influenza cytopathic effect (CPE) assay in MDCK cells, prophylactic regimen (Example 7); format: cell-based; parameters: key to CPE score: 1: Complete monolayer with few gaps or dead cells; 2: Some gaps in the monolayer; dead cells more evident; 3: Increasing number of gaps in the monolayer concurrent with dead cells; 4: Gaps widely distributed throughout the monolayer and of increasing size; 5: Large holes forming as smaller gaps merge; copious dead cells evident; 6: Monolayer integrity lost. Small islands of attached cells amid predominantly dead cells; conditions: for CPE score: Influenza A, MDCK

CC(C)(C)OC(=O)N1CCCC1O (centres unmarked) [I(b), tert-butyl 2-hydroxypyrrolidine-1-carboxylate]
Toxicity (MTT), fold changes relative to vehicle controls (MDCK cells; 24 h exposure, 0.5 μg/ml): 1.02 fold
Toxicity (MTT), fold changes relative to vehicle controls (MDCK cells; 24 h exposure, 1.0 μg/ml): 1.07 fold
Toxicity (MTT), fold changes relative to vehicle controls (MDCK cells; 24 h exposure, 5.0 μg/ml): 1.09 fold
Toxicity (MTT), fold changes relative to vehicle controls (MDCK cells; 24 h exposure, 10 μg/ml): 1.00 fold
Toxicity (MTT), fold changes relative to vehicle controls (MDCK cells; 24 h exposure, 25 μg/ml): 1.08 fold
Toxicity (MTT), fold changes relative to vehicle controls (MDCK cells; 24 h exposure, 50 μg/ml): 1.13 fold
Toxicity (MTT), fold changes relative to vehicle controls (MDCK cells; 24 h exposure, 100 μg/ml): 1.09 fold
Toxicity (MTT), fold changes relative to vehicle controls (MDCK cells; 72 h exposure, 0.5 μg/ml): 0.99 fold
Toxicity (MTT), fold changes relative to vehicle controls (MDCK cells; 72 h exposure, 1.0 μg/ml): 1.00 fold
Toxicity (MTT), fold changes relative to vehicle controls (MDCK cells; 72 h exposure, 5.0 μg/ml): 0.94 fold
Toxicity (MTT), fold changes relative to vehicle controls (MDCK cells; 72 h exposure, 10 μg/ml): 0.97 fold
Toxicity (MTT), fold changes relative to vehicle controls (MDCK cells; 72 h exposure, 25 μg/ml): 1.04 fold
Toxicity (MTT), fold changes relative to vehicle controls (MDCK cells; 72 h exposure, 50 μg/ml, decreases exceeding 25% considered toxic): 0.99 fold
Toxicity (MTT), fold changes relative to vehicle controls (MDCK cells; 72 h exposure, 100 μg/ml, decreases exceeding 25% considered toxic): 0.89 fold
cytotoxicity (summary in words) (MDCK cells; higher concentrations (≧25 μg/ml)): did not evidence cytotoxicity
viability/proliferation [1]: dose-dependent decreases in viability/proliferation
overt cell death / reductions in MTT activity (U373 astroglioma cells): Neither overt cell death nor significant reductions in MTT activity
effect on CPE (summary in words) ([2]; Influenza B infection): little impact on CPE
CPE score ([2]; 24 hpi, 0.5 μg/ml): 3
CPE score ([2]; 24 hpi, 1.0 μg/ml): 4
CPE score ([2]; 24 hpi, 5.0 μg/ml): 4
CPE score ([2]; 24 hpi, 10 μg/ml): 3
CPE score ([2]; 24 hpi, 25 μg/ml): 4
CPE score ([2]; 24 hpi, 50 μg/ml): 3
CPE score ([2]; 24 hpi, 100 μg/ml): 4
CPE score ([2]; 48 hpi, 0.5 μg/ml): 3
CPE score ([2]; 48 hpi, 1.0 μg/ml): 4
CPE score ([2]; 48 hpi, 5.0 μg/ml): 4
CPE score ([2]; 48 hpi, 10 μg/ml): 4
CPE score ([2]; 48 hpi, 25 μg/ml): 4
CPE score ([2]; 48 hpi, 50 μg/ml): 3
CPE score ([2]; 48 hpi, 100 μg/ml): 3
decrease in MTT activity ([3]; SH-SY5Y, acute treatment (24 h), 0.25 mg/ml): approximately 30%
change in MTT activity ([3]; SH-SY5Y, acute treatment (24 h), other concentrations evaluated (below 0.25 mg/ml)): No significant change in MTT activity
decrease in MTT activity ([3]; SH-SY5Y, chronic treatment (72 h), 50 μg/ml): 25%
decrease in MTT activity ([3]; SH-SY5Y, chronic treatment (72 h), 100 μg/ml): 25%
decrease in MTT activity ([3]; SH-SY5Y, chronic treatment (72 h), 250 μg/ml): 47%
LD50 ([3]; select cell types, chronic conditions (72 h)): ~0.25 mg/mL
CPE score ([4]; 0.5 μg/ml, virus + DMSO control 3): 1
CPE score ([4]; 0.5 μg/ml, virus + DMSO control 4): 2
CPE score ([4]; 1.0 μg/ml, virus + DMSO control 3): 1
CPE score ([4]; 1.0 μg/ml, virus + DMSO control 4): 2
CPE score ([4]; 5.0 μg/ml, virus + DMSO control 3): 1
CPE score ([4]; 5.0 μg/ml, virus + DMSO control 4): 3
CPE score ([4]; 10 μg/ml, virus + DMSO control 3): 3
CPE score ([4]; 10 μg/ml, virus + DMSO control 4): 4
CPE score ([4]; 25 μg/ml, virus + DMSO control 3): 3
CPE score ([4]; 25 μg/ml, virus + DMSO control 4): 4
CPE score ([4]; 50 μg/ml, virus + DMSO control 3): 3
CPE score ([4]; 50 μg/ml, virus + DMSO control 4): 4
CPE score ([4]; 100 μg/ml, virus + DMSO control 3): 3
CPE score ([4]; 100 μg/ml, virus + DMSO control 4): 4
effect on CPE (summary in words) ([4]; comparatively lower concentrations): lower concentrations more greatly reduced CPE

— patent US8916605B2, “Compounds and methods for treating cancer and viral infections” (priority 2009, dated 2014)
